Source: PubChem BioAssay (NCI)
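96-well plates; 48 h exposure; 5 concentrations. Endpoints by linear interpolation between flanking doses. Not reached: highest tested concentration assigned. TGI marks complete inhibition of growth.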

Legend:
Experiment in all cases: inhibition of tumour cell growth, NCI panel, 48 h
UACC-257 melanoma = test system: UACC-257 melanoma
OVCAR-5 ovarian = test system: OVCAR-5 ovarian
SNB-19 CNS = test system: SNB-19 CNS
SF-539 CNS = test system: SF-539 CNS
CAKI-1 renal = test system: CAKI-1 renal
MCF7 breast = test system: MCF7 breast
IGROV1 ovarian = test system: IGROV1 ovarian
NCI-H23 lung = test system: NCI-H23 lung
HCT-116 colon = test system: HCT-116 colon
ACHN renal = test system: ACHN renal
HOP-92 NSCLC = test system: HOP-92 NSCLC
SW-620 colon = test system: SW-620 colon
COLO 205 colon = test system: COLO 205 colon
SN12C renal = test system: SN12C renal
SK-MEL-5 melanoma = test system: SK-MEL-5 melanoma
786-0 renal = test system: 786-0 renal
DU-145 prostate = test system: DU-145 prostate
T-47D breast = test system: T-47D breast
A549 NSCLC = test system: A549 NSCLC
SK-MEL-28 melanoma = test system: SK-MEL-28 melanoma
MDA-MB-435 = test system: MDA-MB-435
RPMI-8226 leukemia = test system: RPMI-8226 leukemia
EKVX NSCLC = test system: EKVX NSCLC
MDA-MB-231 breast = test system: MDA-MB-231 breast
NCI/ADR-RES ovarian = test system: NCI/ADR-RES ovarian
KM12 colon = test system: KM12 colon
M14 melanoma = test system: M14 melanoma
TK-10 renal = test system: TK-10 renal
A498 renal = test system: A498 renal
SF-268 CNS = test system: SF-268 CNS
OVCAR-8 ovarian = test system: OVCAR-8 ovarian
HL-60(TB) leukemia = test system: HL-60(TB) leukemia
UACC-62 melanoma = test system: UACC-62 melanoma
SNB-75 CNS = test system: SNB-75 CNS
RXF 393 renal = test system: RXF 393 renal
UO-31 renal = test system: UO-31 renal
CCRF-CEM leukemia = test system: CCRF-CEM leukemia
OVCAR-4 ovarian = test system: OVCAR-4 ovarian
HS 578T breast = test system: HS 578T breast
HCT-15 colon = test system: HCT-15 colon
HCC-2998 colon = test system: HCC-2998 colon
BT-549 breast = test system: BT-549 breast
NCI-H226 lung = test system: NCI-H226 lung
SK-OV-3 ovarian = test system: SK-OV-3 ovarian
NCI-H522 lung = test system: NCI-H522 lung
SF-295 CNS = test system: SF-295 CNS
MOLT-4 leukemia = test system: MOLT-4 leukemia
HT29 colon = test system: HT29 colon
U251 CNS = test system: U251 CNS
K-562 leukemia = test system: K-562 leukemia
LOX IMVI melanoma = test system: LOX IMVI melanoma

`Cc1oc2nc(N(C)C)n3nnnc3c2c1C` was tested, and the TGI (UACC-257 melanoma) was > 100 µM, the TGI (OVCAR-5 ovarian) was > 100 µM and the TGI (SNB-19 CNS) was > 100 µM. For the same compound, the TGI (SF-539 CNS) was > 100 µM, the TGI (CAKI-1 renal) was > 100 µM and the TGI (MCF7 breast) was > 100 µM. For the same compound, the TGI (IGROV1 ovarian) was > 100 µM, the TGI (NCI-H23 lung) was > 100 µM and the TGI (HCT-116 colon) was > 100 µM. The TGI (ACHN renal) was > 100 µM, the TGI (HOP-92 NSCLC) was > 100 µM and the TGI (SW-620 colon) was > 100 µM. For the same compound, the TGI (COLO 205 colon) was > 100 µM, the TGI (SN12C renal) was > 100 µM and the TGI (SK-MEL-5 melanoma) was > 100 µM. The TGI (786-0 renal) was > 100 µM, the TGI (DU-145 prostate) was > 100 µM and the TGI (T-47D breast) was > 100 µM. The TGI (A549 NSCLC) was > 100 µM, the TGI (SK-MEL-28 melanoma) was > 100 µM and the TGI (MDA-MB-435) was > 100 µM. The TGI (RPMI-8226 leukemia) was > 100 µM, the TGI (EKVX NSCLC) was > 100 µM and the TGI (MDA-MB-231 breast) was > 100 µM. For the same compound, the TGI (NCI/ADR-RES ovarian) was > 100 µM, the TGI (KM12 colon) was > 100 µM and the TGI (M14 melanoma) was > 100 µM. The TGI (TK-10 renal) was > 100 µM, the TGI (A498 renal) was > 100 µM and the TGI (SF-268 CNS) was > 100 µM. For the same compound, the TGI (OVCAR-8 ovarian) was > 100 µM, the TGI (HL-60(TB) leukemia) was 63.6 µM and the TGI (UACC-62 melanoma) was > 100 µM. For the same compound, the TGI (SNB-75 CNS) was > 100 µM, the TGI (RXF 393 renal) was > 100 µM and the TGI (UO-31 renal) was > 100 µM. The TGI (CCRF-CEM leukemia) was > 100 µM, the TGI (OVCAR-4 ovarian) was > 100 µM and the TGI (HS 578T breast) was > 100 µM. The TGI (HCT-15 colon) was > 100 µM, the TGI (HCC-2998 colon) was > 100 µM and the TGI (BT-549 breast) was > 100 µM. For the same compound, the TGI (NCI-H226 lung) was > 100 µM, the TGI (SK-OV-3 ovarian) was > 100 µM and the TGI (NCI-H522 lung) was > 100 µM. The TGI (SF-295 CNS) was > 100 µM, the TGI (MOLT-4 leukemia) was > 100 µM and the TGI (HT29 colon) was > 100 µM. The TGI (U251 CNS) was > 100 µM, the TGI (K-562 leukemia) was > 100 µM and the TGI (LOX IMVI melanoma) was > 100 µM.
